# From paper PMC9250534, “Synthesis and direct assay of large macrocycle diversities by combinatorial late-stage modification at picomole scale” (Nature Communications, 2022)
# Numbered stars: 1 amine (or outer) side, 2 acyl side, 3 side chain; on linkers, the order of the positions; unused ones are H or OH. Bridge positions count the residues as written; N and C are the ends. Square brackets hold non-standard residues; d marks the D form. Side chains are listed from the residue outwards. Peptide text beside a SMILES is read from it. * marks the point of attachment. Isoxazole3carbonyl(5-Me) = Cc1cc(C(=O)*)no1; Tetrahydropyran4carbonyl = O=C(C1CCOCC1)*; Acetyl(4-pyridyl) = O=C(Cc1ccncc1)*; 2Thenoyl(5-Cl) = O=C(c1ccc(Cl)s1)*; Benzoyl(4-Cl) = O=C(c1ccc(Cl)cc1)*; X10 = O=C(c1cc(-c2ccco2)[nH]n1)*; Cysteamide = C(CS[*:3])N[*:1]; X8 = O=C(c1ccc(=O)[nH]n1)*; X1 = O=C(/C=C/c1ccccc1)*; Api = NC1(C(=O)O)CCNCC1; Dap = NC[C@H](N)C(=O)O; Mpa = O=C(O)CCS
# Target: MDM2 (Homo sapiens, UniProt Q00987)
# Test: MDM2 binding screen: displacement of fluorescent p53 peptide probe FP53 (fluorescence polarization)
# Details: for fraction fluorescent probe displaced, Screen: initial screen; for fraction fluorescent probe displaced, Screen / fraction fluorescent probe displaced, Replicate: crude macrocycle reactions
# Method: We screened Library 2 in 384-microwell plates by dispensing the target protein MDM2 and reporter peptide into the wells containing the macrocycle reactions.
# The products were screened for displacement of a p53-based fluorescent peptide from human MDM2. Final macrocycle concentrations were 10 µM. For each macrocycle, the MDM2 binding was measured once.
# One fluorescence anisotropy reading was taken with a Tecan Infinite F200 Pro fluorescence plate reader (excitation at 485 nm, emission at 535 nm) at 25 °C. Data was collected and exported using the Tecan Infinite M200 Pro instrument software. The data was analyzed by Excel (version 2016).
# [1] = 10 µM macrocycle concentration, crude acylated macrocycle (scaffold Mpa-AA1-AA2-AA3 x carboxylic acid), p53-based fluorescent peptide, human MDM2
# Sequence of MDM2 (Q00987 whole entry): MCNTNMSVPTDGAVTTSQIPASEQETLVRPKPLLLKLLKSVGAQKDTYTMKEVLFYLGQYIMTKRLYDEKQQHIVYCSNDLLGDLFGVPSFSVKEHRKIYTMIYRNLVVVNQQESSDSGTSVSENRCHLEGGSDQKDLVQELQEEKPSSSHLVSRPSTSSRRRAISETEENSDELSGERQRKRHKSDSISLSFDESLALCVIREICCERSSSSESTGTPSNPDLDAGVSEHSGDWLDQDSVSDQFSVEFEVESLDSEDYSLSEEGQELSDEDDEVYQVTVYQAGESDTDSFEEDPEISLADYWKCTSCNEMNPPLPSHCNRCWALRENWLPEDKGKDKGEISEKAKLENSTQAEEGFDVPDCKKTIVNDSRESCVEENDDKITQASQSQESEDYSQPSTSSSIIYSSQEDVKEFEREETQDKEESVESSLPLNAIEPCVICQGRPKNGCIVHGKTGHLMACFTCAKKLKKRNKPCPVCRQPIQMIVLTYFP
smiles,measurement,setting,value
O=C1CCSSCCNC(=O)C2(CCN(C(=O)c3ccc(Cl)cc3)CC2)NC(=O)[C@H]2CCCN(C2)C(=O)[C@H](Cc2c[nH]c3ccccc23)N1 [X W B4 D6 Acid 25],"fraction fluorescent probe displaced, Screen",Acid 25,0.25
same,"fraction fluorescent probe displaced, Replicate","Acid 25, replicate",0.12
O=C1NC2(CCN(C(=O)c3ccc(Cl)s3)CC2)C(=O)NCCSSCCC(=O)N2CCCC2C(=O)NC1Cc1ccccc1 (centres unmarked) [X B1 F D6 Acid 14] ([Mpa]PF[Api](2Thenoyl(5-Cl))-Cysteamide; disulfide 1-C; configuration not given here),"fraction fluorescent probe displaced, Screen",Acid 14,0.08
same,"fraction fluorescent probe displaced, Replicate","Acid 14, replicate",0.07
O=C1NCCSSCCC(=O)N2CCN(C(=O)c3ccc(Cl)s3)CC2C(=O)N2CCCC2C(=O)NC1Cc1c[nH]c2ccccc12 (centres unmarked) [X D7 B1 W Acid 14],"fraction fluorescent probe displaced, Screen",Acid 14,-0.00483
same,"fraction fluorescent probe displaced, Replicate","Acid 14, replicate",0.07
O=C1CCSSCCNC(=O)[C@H](Cc2ccccc2)NC(=O)C2(CCN(C(=O)c3ccc(Cl)cc3)CC2)NC(=O)c2cccc(c2)CN1 [X B5 D6 F Acid 25],"fraction fluorescent probe displaced, Screen",Acid 25,0.0462
same,"fraction fluorescent probe displaced, Replicate","Acid 25, replicate",0.07
O=C(NC[C@@H]1NC(=O)[C@@H]2CCCN2C(=O)CCSSCCNC(=O)[C@H](Cc2ccccc2)NC1=O)c1ccc(=O)[nH]n1 [X-B1-D3-F + A86] ([Mpa]P[Dap](X8)F-Cysteamide; disulfide 1-C),fraction fluorescent probe displaced,[1],0.01272
O=C1CCSSCCNC(=O)[C@H](Cc2ccccc2)NC(=O)CCNC(=O)[C@H](CNC(=O)c2ccc(Cl)s2)N1 [X D3 B2 F Acid 14],"fraction fluorescent probe displaced, Screen",Acid 14,0.17
same,"fraction fluorescent probe displaced, Replicate","Acid 14, replicate",0.10
O=C(NC[C@@H]1NC(=O)[C@H]2CCCN(C2)C(=O)CCSSCCNC(=O)[C@H](Cc2c[nH]c3ccccc23)NC1=O)c1ccc(Cl)s1 [X B4 D3 W Acid 14],"fraction fluorescent probe displaced, Screen",Acid 14,0.63
same,"fraction fluorescent probe displaced, Replicate","Acid 14, replicate",0.58
O=C1NCCSSCCC(=O)N2CCCC2C(=O)N2CCN(C(=O)c3ccc(Cl)cc3)CC2C(=O)NC1Cc1c[nH]c2ccccc12 (centres unmarked) [X B1 D7 W Acid 25],"fraction fluorescent probe displaced, Screen",Acid 25,0.09
same,"fraction fluorescent probe displaced, Replicate","Acid 25, replicate",0.10
O=C(/C=C/c1ccccc1)NC[C@@H]1NC(=O)[C@H](Cc2c[nH]c3ccccc23)NC(=O)CCSSCCNC(=O)[C@@H]2CCCN2C1=O [X W D3 B1 Acid 91] ([Mpa]W[Dap](X1)P-Cysteamide; disulfide 1-C),"fraction fluorescent probe displaced, Screen",Acid 91,0.11
same,"fraction fluorescent probe displaced, Replicate","Acid 91, replicate",-0.00827
O=C1CCSSCCNC(=O)C(Cc2c[nH]c3ccccc23)NC(=O)C2CN(C(=O)c3ccc(Cl)s3)CCN2C(=O)CCN1 (centres unmarked) [X B2 D7 W Acid 14],"fraction fluorescent probe displaced, Screen",Acid 14,0.17
same,"fraction fluorescent probe displaced, Replicate","Acid 14, replicate",0.07
O=C1CCSSCCNC(=O)C2(CCN(C(=O)/C=C/c3ccccc3)CC2)NC(=O)[C@H](Cc2ccccc2)NC(=O)CCN1 [X B2 F D6 Acid 91],"fraction fluorescent probe displaced, Screen",Acid 91,0.0563
same,"fraction fluorescent probe displaced, Replicate","Acid 91, replicate",0.12
O=C(NC[C@@H]1NC(=O)[C@@H]2CCCN2C(=O)CCSSCCNC(=O)[C@H](Cc2c[nH]c3ccccc23)NC1=O)c1ccc(Cl)s1 [X B1 D3 W Acid 14] ([Mpa]P[Dap](2Thenoyl(5-Cl))W-Cysteamide; disulfide 1-C),"fraction fluorescent probe displaced, Screen",Acid 14,0.17
same,"fraction fluorescent probe displaced, Replicate","Acid 14, replicate",0.10
NC[C@@H]1NC(=O)[C@@H]2CCCN2C(=O)CCSSCCNC(=O)[C@H](Cc2c[nH]c3ccccc23)NC1=O [X-B1-D3-W + No Acid] ([Mpa]P[Dap]W-Cysteamide; disulfide 1-C),fraction fluorescent probe displaced,[1],0.1075
O=C(NC[C@@H]1NC(=O)[C@@H]2CCCN2C(=O)CCSSCCNC(=O)[C@H](Cc2ccccc2)NC1=O)c1ccc(Cl)s1 [X-B1-D3-F + A14] ([Mpa]P[Dap](2Thenoyl(5-Cl))F-Cysteamide; disulfide 1-C),fraction fluorescent probe displaced,[1],0.08192
O=C1CCSSCCNC(=O)C(Cc2ccccc2)NC(=O)C2CN(C(=O)C=Cc3ccccc3)CCN2C(=O)c2cccc(c2)CN1 (mixture of isomers) [X B5 D7 F Acid 91],"fraction fluorescent probe displaced, Screen",Acid 91,-0.10
same,"fraction fluorescent probe displaced, Replicate","Acid 91, replicate",-0.00827
O=C1CCSSCCNC(=O)[C@H]2CCCN(C2)C(=O)[C@H](Cc2c[nH]c3ccccc23)NC(=O)[C@H](CNC(=O)c2ccc(Cl)s2)N1 [X D3 W B4 Acid 14],"fraction fluorescent probe displaced, Screen",Acid 14,0.20
same,"fraction fluorescent probe displaced, Replicate","Acid 14, replicate",0.0465
O=C1NCCSSCCC(=O)N2CC(NC(=O)c3ccc(Cl)s3)CC2C(=O)NC(Cc2ccccc2)C(=O)NCc2cccc1c2 (centres unmarked) [X D5 F B5 Acid 14],"fraction fluorescent probe displaced, Screen",Acid 14,0.11
same,"fraction fluorescent probe displaced, Replicate","Acid 14, replicate",-0.03
O=C(C=Cc1ccccc1)NC1CC2C(=O)NC(Cc3c[nH]c4ccccc34)C(=O)N3CCCC(C3)C(=O)NCCSSCCC(=O)N2C1 (centres unmarked) [X D5 W B4 Acid 91],"fraction fluorescent probe displaced, Screen",Acid 91,0.0563
same,"fraction fluorescent probe displaced, Replicate","Acid 91, replicate",0.07
O=C(C=Cc1ccccc1)NC1CC2C(=O)N3CCCC3C(=O)NCCSSCCC(=O)NC(Cc3c[nH]c4ccccc34)C(=O)N2C1 (centres unmarked) [X W D5 B1 Acid 91],"fraction fluorescent probe displaced, Screen",Acid 91,0.08
same,"fraction fluorescent probe displaced, Replicate","Acid 91, replicate",0.07
O=C1CCSSCCNC(=O)C2(CCN(C(=O)c3ccc(Cl)cc3)CC2)NC(=O)C(Cc2ccccc2)NC(=O)c2cccc(c2)CN1 (centres unmarked) [X B5 F D6 Acid 25],"fraction fluorescent probe displaced, Screen",Acid 25,0.0244
same,"fraction fluorescent probe displaced, Replicate","Acid 25, replicate",0.0465
O=C(NC[C@@H]1NC(=O)[C@@H]2CCCN2C(=O)CCSSCCNC(=O)[C@H](Cc2c[nH]c3ccccc23)NC1=O)C1CCOCC1 [X-B1-D3-W + A44] ([Mpa]P[Dap](Tetrahydropyran4carbonyl)W-Cysteamide; disulfide 1-C),fraction fluorescent probe displaced,[1],0.01122
O=C1CCSSCCNC(=O)[C@H](Cc2ccccc2)NC(=O)[C@H]2CCCN(C2)C(=O)C2(CCN(C(=O)c3ccc(Cl)cc3)CC2)N1 [X D6 B4 F + Acid 25],fraction fluorescent probe displaced,"crude reaction of macrocycle scaffold with Acid 25, (initial screen)",0.09
same,fraction fluorescent probe displaced,"crude reaction of macrocycle scaffold with Acid 25, replicate",0.15
O=C(NC[C@@H]1NC(=O)[C@@H]2CCCN2C(=O)CCSSCCNC(=O)[C@H](Cc2ccccc2)NC1=O)c1cc(-c2ccco2)[nH]n1 [X-B1-D3-F + A79] ([Mpa]P[Dap](X10)F-Cysteamide; disulfide 1-C),fraction fluorescent probe displaced,[1],0.07009
O=C1CCSSCCNC(=O)[C@@H]2CCCN2C(=O)C2(CCN(C(=O)c3ccc(Cl)cc3)CC2)NC(=O)[C@H](Cc2c[nH]c3ccccc23)N1 [X W D6 B1 Acid 25] ([Mpa]W[Api](Benzoyl(4-Cl))P-Cysteamide; disulfide 1-C),"fraction fluorescent probe displaced, Screen",Acid 25,0.28
same,"fraction fluorescent probe displaced, Replicate","Acid 25, replicate",0.25
O=C1CCNC(=O)[C@H](CNC(=O)c2ccc(Cl)cc2)NC(=O)[C@H](Cc2ccccc2)NC(=O)CCSSCCN1 [X F D3 B2 Acid 25],"fraction fluorescent probe displaced, Screen",Acid 25,0.19
same,"fraction fluorescent probe displaced, Replicate","Acid 25, replicate",0.0211
O=C1NCCSSCCC(=O)N2CCN(C(=O)c3ccc(Cl)s3)CC2C(=O)NC(Cc2ccccc2)C(=O)NCc2cccc1c2 (mixture of isomers) [X D7 F B5 Acid 14],"fraction fluorescent probe displaced, Screen",Acid 14,0.11
same,"fraction fluorescent probe displaced, Replicate","Acid 14, replicate",0.17
O=C1CCSSCCNC(=O)C2CN(C(=O)C=Cc3ccccc3)CCN2C(=O)C2CCCN(C2)C(=O)C(Cc2ccccc2)N1 (centres unmarked) [X F B4 D7 Acid 91],"fraction fluorescent probe displaced, Screen",Acid 91,0.0563
same,"fraction fluorescent probe displaced, Replicate","Acid 91, replicate",0.0168
O=C(C=Cc1ccccc1)NC1CC2C(=O)NC(Cc3c[nH]c4ccccc34)C(=O)NCCSSCCC(=O)NCc3cccc(c3)C(=O)N2C1 (centres unmarked) [X B5 D5 W Acid 91],"fraction fluorescent probe displaced, Screen",Acid 91,-0.13
same,"fraction fluorescent probe displaced, Replicate","Acid 91, replicate",0.0168
O=C1CCSSCCNC(=O)[C@@H]2CCCN2C(=O)[C@H](Cc2c[nH]c3ccccc23)NC(=O)[C@H](CNC(=O)c2ccc(Cl)s2)N1 [X D3 W B1 Acid 14] ([Mpa][Dap](2Thenoyl(5-Cl))WP-Cysteamide; disulfide 1-C),"fraction fluorescent probe displaced, Screen",Acid 14,0.14
same,"fraction fluorescent probe displaced, Replicate","Acid 14, replicate",0.17
O=C(Cc1ccncc1)NC[C@@H]1NC(=O)[C@@H]2CCCN2C(=O)CCSSCCNC(=O)[C@H](Cc2ccccc2)NC1=O [X-B1-D3-F + A70] ([Mpa]P[Dap](Acetyl(4-pyridyl))F-Cysteamide; disulfide 1-C),fraction fluorescent probe displaced,[1],-0.04156
O=C1CCNC(=O)C(Cc2ccccc2)NC(=O)CCSSCCNC(=O)C(CNC(=O)c2ccc(Cl)cc2)N1 (centres unmarked) [X F B2 D3 Acid 25],"fraction fluorescent probe displaced, Screen",Acid 25,0.22
same,"fraction fluorescent probe displaced, Replicate","Acid 25, replicate",0.17
O=C1CCSSCCNC(=O)[C@H](Cc2c[nH]c3ccccc23)NC(=O)[C@@H]2CCCN2C(=O)C2(CCN(C(=O)c3ccc(Cl)s3)CC2)N1 [X D6 B1 W Acid 14] ([Mpa][Api](2Thenoyl(5-Cl))PW-Cysteamide; disulfide 1-C),"fraction fluorescent probe displaced, Screen",Acid 14,0.08
same,"fraction fluorescent probe displaced, Replicate","Acid 14, replicate",0.07
Cc1cc(C(=O)NC[C@@H]2NC(=O)[C@@H]3CCCN3C(=O)CCSSCCNC(=O)[C@H](Cc3c[nH]c4ccccc34)NC2=O)no1 [X-B1-D3-W + A3] ([Mpa]P[Dap](Isoxazole3carbonyl(5-Me))W-Cysteamide; disulfide 1-C),fraction fluorescent probe displaced,[1],0.08125
O=C1CCSSCCNC(=O)C2CN(C(=O)c3ccc(Cl)cc3)CCN2C(=O)C2CCCN2C(=O)C(Cc2c[nH]c3ccccc23)N1 (centres unmarked) [X W B1 D7 Acid 25],"fraction fluorescent probe displaced, Screen",Acid 25,0.19
same,"fraction fluorescent probe displaced, Replicate","Acid 25, replicate",0.17
CC(=O)NCC(=O)NC[C@@H]1NC(=O)[C@@H]2CCCN2C(=O)CCSSCCNC(=O)[C@H](Cc2c[nH]c3ccccc23)NC1=O [X-B1-D3-W + A83] ([Mpa]P[Dap]([Gly-Ac])W-Cysteamide; disulfide 1-C),fraction fluorescent probe displaced,[1],0.1654
